Measurements from patent US4673676A, “Pyrimidoisoquinoline derivatives useful for treating allergies” (Fujisawa Pharmaceutical Co., Ltd., priority 1983, dated 1987).

System: PCA (Passive Cutaneous Anaphylaxis) reaction
Assay: Inhibitory effect on PCA (Passive Cutaneous Anaphylaxis) reaction
Format: in vivo, male SD (Spraque-Dawley) strain rats
Settings: rat, 1 mg/kg intravenously, 5 minutes before the challenge with antigen; percent inhibition of dye spot size vs control
Protocol: A solution of egg albumin (2 mg) in B. pertussisdiphtheria-tetanus mixed vaccine (1 ml) was mixed with Freund incomplete adjuvant (1 ml) to give an emulsion. The emulsion was given subcutaneously in a single dose of 1 ml divided equally (0.25 ml) to the four foot pads of male SD (Spraque-Dawley) strain rats aged 8 weeks, each weighing about 300 g.
8 days after the immunization, blood samples were collected from femoral artery of the rats and allowed to stand under ice-cooling for 5 hours. The separated supernatant was centrifuged at 4° C. (10,000 r.p.m.×1 hour). The antisera thus obtained were stored at -80° C. prior to use.
Male SD-strain rats aged 8 weeks, weighing 250 to 300 g, were used for PCA reaction with the homologous reaginic antiserum as prepared above. Each 0.1 ml of 32 fold diluted antiserum were injected intradermally at separate sites on the back of rats clipped free of hair, and 48 hours later, 1 ml of aqueous solution containing each 5 mg of the egg albumin and Evans blue was injected intravenously to evoke PCA reaction. Test compound was given to the animals intravenously 5 minutes before the challenge with antigen. Control group received vehicle. Each dose group consisted of 4 animals. […] The results were expressed by percent inhibition values calculated from averaged values of the longest and shortest diameters for each spot in comparison with those in control group. […]

## N-(1H-tetrazol-5-yl)-10-(2,3-dimethylpentanoylamino)-7-methyl-4-oxo-4H-pyrimido[2,1-a]isoquinoline-3-carboxamide [Example 11]
  Inhibitory effect: 100%
